Patent publication US10858413B2, “Immunoglobulins and uses thereof” (Janssen Pharmaceutica NV, priority 2016, dated 2020)
Marks after values point to notes of the source that are not given here.

Key:
PTHR1 = target: T1, PTHR1 (Homo sapiens, UniProt Q03431); test: class B GPCR cAMP assay, PTHR1; format: cell-based
T1 construct: host or cells: cells of an unnamed vendor
T1 sequence (Q03431 27-593): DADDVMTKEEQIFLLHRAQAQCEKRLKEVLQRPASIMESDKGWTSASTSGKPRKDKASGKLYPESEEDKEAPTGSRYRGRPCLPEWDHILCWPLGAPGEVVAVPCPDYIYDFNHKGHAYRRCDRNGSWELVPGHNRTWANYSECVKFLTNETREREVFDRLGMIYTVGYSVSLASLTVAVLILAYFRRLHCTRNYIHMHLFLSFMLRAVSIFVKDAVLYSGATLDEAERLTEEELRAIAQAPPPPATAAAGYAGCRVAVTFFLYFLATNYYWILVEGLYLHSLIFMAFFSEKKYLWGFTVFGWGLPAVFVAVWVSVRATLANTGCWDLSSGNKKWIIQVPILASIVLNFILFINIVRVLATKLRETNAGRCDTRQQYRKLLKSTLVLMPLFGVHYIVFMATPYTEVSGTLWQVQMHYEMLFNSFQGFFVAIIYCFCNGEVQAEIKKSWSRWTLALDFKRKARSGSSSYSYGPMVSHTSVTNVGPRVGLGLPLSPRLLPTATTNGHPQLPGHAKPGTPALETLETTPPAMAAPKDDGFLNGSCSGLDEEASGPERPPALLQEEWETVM
Procedure: The assays were performed according to the vendor's standard operating procedures with a positive control included for each receptor tested.

[1] = Repeat dosing in DIO mice: body weight change and body composition; format: in vivo, mouse; details: 0.3 nmol/kg s.c. daily
Procedure: (§1) To control for the dosing frequency, all animals were dosed daily. Dosing frequency was determined on the basis of DIO mouse PK data for compound 2 and dulaglutide. Animals in the dulaglutide group received this drug daily. The vehicle-treated animals received vehicle daily. […] The day prior to initiating of dosing, animals were weighed and grouped by body weight. […].
(§2) Beginning 24-hr after the first dosing, three groups of mice were pair-fed (PF) to the 1.0, 2.0, or 4.0 nmol/kg compound 2-treated animals. The amount of food in the hopper of pair-fed mice was adjusted to match the average food consumed in the previous 24 hours by mice in the compound treatment group to which they were being matched. All PF groups were dosed daily with vehicle. On the ninth day (or Day 10 for the pair-fed groups), animals were fasted for 6 hours and body weight and fasting glucose were measured. Blood was collected for measurements of insulin, FGF21 and plasma lipids. The food intake, body weight, body composition, fasting glucose, fasting insulin, fasting FGF21, and fasting plasma lipid data are shown in tables 20-26.

DIO mice [2] = test: Repeat dosing in DIO mice: fasting glucose, insulin, FGF21, plasma lipids; format: in vivo, mouse; details: after repeated dosing, 0.3 nmol/kg s.c. daily
Procedure: as §1, §2

[3] = Single-dose efficacy in DIO mice: body weight change; details: single s.c. dose 0.3 nmol/kg, 18 hours after treatment, relative to day 0
DIO mice [4] = test: OGTT (blood glucose, insulin) in DIO mice after 8 days of treatment; format: in vivo, mouse; details: 0.3 nmol/kg s.c. every day
Procedure: (§3) Compound 1 was evaluated for its ability to reduce foot intake and body weight and improve glucose homeostasis on repeat dosing in male DIO C57B1/6 mice over a period of 8 days. Male DIO C57BL/6N mice (20 weeks of age, 14 weeks on high fat diet) were obtained from Taconic Laboratory. […] Animals were acclimated to the facility for at least one week prior to the start of the experiment.
(§4) The day prior to dosing, mice were grouped based on individual body weights. At 3:00-4:00 pm for each of the next 8 days, animals and food intake were weighed. […] After 8 days, mice are fasted for 5 hours and then given a 2 g/kg bolus of glucose orally at t=0. At t=0, 30, 60, 90, and 120 minutes post glucose challenge blood glucose is measured and at t=0, 30, and 90 minutes blood in drawn to measure plasma insulin. […] All data are presented as the mean±SEM (FIGS. 8 and 9, and Tables 5-8).

DIO mice [5] = test: Fed blood glucose in DIO mice after 8 days of treatment; format: in vivo, mouse; details: 0.3 nmol/kg s.c. every day
Procedure: as §3, §4

DIO mice [6] = test: Repeat dosing in DIO mice: daily food intake; format: in vivo, mouse; details: 0.3 nmol/kg s.c. daily
Procedure: as §1, §2

DIO mice [7] = test: Single-dose efficacy in DIO mice: food intake; details: single s.c. dose 0.3 nmol/kg
DIO mice [8] = test: Single-dose efficacy in DIO mice: plasma FGF21; details: 26 hours after treatment, single s.c. dose 0.3 nmol/kg
DIO mice [9] = test: Single-dose efficacy in DIO mice: fasting glucose, IPGTT glucose and insulin; details: single s.c. dose 0.3 nmol/kg

CC[C@H](C)[C@H](NC(=O)[C@H](CCC(=O)O)NC(=O)[C@H](CO)NC(=O)[C@@H](NC(=O)[C@@H](N)CO)C(C)C)C(=O)N[C@@H](CCC(N)=O)C(=O)N[C@@H](CC(C)C)C(=O)N[C@@H](CCSC)C(=O)N[C@@H](Cc1cnc[nH]1)C(=O)N[C@@H](CC(N)=O)C(=O)N[C@@H](CC(C)C)C(=O)NCC(=O)N[C@@H](CCCCN)C(=O)N[C@@H](Cc1cnc[nH]1)C(=O)N[C@@H](CC(C)C)C(=O)N[C@@H](CC(N)=O)C(=O)N[C@@H](CO)C(=O)N[C@@H](CCSC)C(=O)N[C@@H](CCC(=O)O)C(=O)N[C@@H](CCCNC(=N)N)C(=O)N[C@H](C(=O)N[C@@H](CCC(=O)O)C(=O)N[C@@H](Cc1c[nH]c2ccccc12)C(=O)N[C@@H](CC(C)C)C(=O)N[C@@H](CCCNC(=N)N)C(=O)N[C@@H](CCCCN)C(=O)N[C@@H](CCCCN)C(=O)N[C@@H](CC(C)C)C(=O)N[C@@H](CCC(N)=O)C(=O)N[C@@H](CC(=O)O)C(=O)N[C@H](C(=O)N[C@@H](Cc1cnc[nH]1)C(=O)N[C@@H](CC(N)=O)C(=O)N[C@@H](Cc1ccccc1)C(=O)O)C(C)C)C(C)C [PTH(1-34)]
Curve Bottom (PTHR1): −5.9767
Curve Top (PTHR1): 101
Hill (PTHR1): 1.8672

Dulaglutide: GLP1R agonist (long-acting GLP-1 receptor agonist) [reference compound]
percent body weight change ([1]; day 0, relative to day 0): 0.0%
percent body weight change ([1]; day 1, relative to day 0): −3.7 ± 0.3%
percent body weight change ([1]; day 2, relative to day 0): −6.2 ± 0.6%
percent body weight change ([1]; day 3, relative to day 0): −7.8 ± 0.8%
percent body weight change ([1]; day 4, relative to day 0): −9.2 ± 0.8%
percent body weight change ([1]; day 5, relative to day 0): −10.1 ± 0.8%
percent body weight change ([1]; day 6, relative to day 0): −10.2 ± 0.8%
percent body weight change ([1]; day 7, relative to day 0): −10.7 ± 1.0%
percent body weight change ([1]; day 8, relative to day 0): −11.1 ± 0.9%
percent body weight change ([1]; day 9, relative to day 0): −13.1 ± 1.1%
body composition: Fat Mass ([1]; after repeated dosing): 7.6 ± 1.1 g
body composition: Fat, % of Body Weight ([1]; after repeated dosing): 22.8 ± 1.2%
body composition: Lean Mass ([1]; after repeated dosing): 22.1 ± 0.3 g
body composition: Lean, % of Body Weight ([1]; after repeated dosing): 61.0 ± 1.7%
6 hour fasting Blood Glucose (DIO mice [2]): 123 ± 5 mg/dL
6 hour fasting Plasma Insulin (DIO mice [2]): 1.4 ± 0.2 ng/mL
6 hour fasting plasma FGF21 (DIO mice [2]): 0.5 ± 0.1 ng/mL
plasma Free Fatty Acids (DIO mice [2]): 73.2 ± 12.0 µmol/L
plasma Free Glycerol (DIO mice [2]): 0.5 ± 0.1 mmol/L
plasma Total cholesterol (DIO mice [2]): 146.1 ± 3.3 mg/dL
plasma Tri-glycerides (DIO mice [2]): 24.1 ± 2.3 mg/dL
Weight Change (%) [3]: −4.1 ± 0.3 %
blood glucose Delta AUC (OGTT) (DIO mice [4]): 6668 ± 1846 mg/dl/120 min
blood glucose Total AUC (OGTT) (DIO mice [4]): 15758 ± 1054 mg/dl/120 min
blood glucose during an OGTT (DIO mice [4]; 0 min after glucose challenge): 76 ± 9 mg/dL
insulin during an OGTT (DIO mice [4]; 0 min after glucose challenge): 0.6 ± 0.1 ng/mL
blood glucose during an OGTT (DIO mice [4]; 30 min after glucose challenge): 151 ± 14 mg/dL
insulin during an OGTT (DIO mice [4]; 30 min after glucose challenge): 1.7 ± 0.2 ng/mL
blood glucose during an OGTT (DIO mice [4]; 60 min after glucose challenge): 174 ± 17 mg/dL
blood glucose during an OGTT (DIO mice [4]; 90 min after glucose challenge): 104 ± 10 mg/dL
insulin during an OGTT (DIO mice [4]; 90 min after glucose challenge): 0.7 ± 0.2 ng/mL
blood glucose during an OGTT (DIO mice [4]; 120 min after glucose challenge): 119 ± 9 mg/dL
fed Blood Glucose (DIO mice [5]): 114 ± 13 mg/dL
daily food intake (DIO mice [6]; day 0): 3.1 ± 0.2 grams
daily food intake (DIO mice [6]; day 1): 1.5 ± 0.2 grams
daily food intake (DIO mice [6]; day 2): 1.3 ± 0.2 grams
daily food intake (DIO mice [6]; day 3): 1.7 ± 0.3 grams
daily food intake (DIO mice [6]; day 4): 1.9 ± 0.2 grams
daily food intake (DIO mice [6]; day 5): 2.1 ± 0.2 grams
daily food intake (DIO mice [6]; day 6): 2.2 ± 0.2 grams
daily food intake (DIO mice [6]; day 7): 2.3 ± 0.2 grams
daily food intake (DIO mice [6]; day 8): 2.9 ± 0.4 grams
daily food intake (DIO mice [6]; day 9): 2.5 ± 0.2 grams
food intake (DIO mice [7]; 18 hours post-dose): 1.5 ± 0.1*^ grams
food intake (DIO mice [7]; 24 hours pre-dose): 3.1 ± 0.1 grams
Plasma FGF21 (DIO mice [8]): 0.8 ± 0.2 ng/mL
6 hour fasting Blood Glucose (DIO mice [9]; 24 hours after treatment): 140 ± 7 mg/dL
Blood Glucose Net AUC during an IPGTT (DIO mice [9]; 24 hours after treatment): 8471 ± 1204
blood glucose during an IPGTT (DIO mice [9]; 24 hours after treatment, 0 min): 140 ± 7 mg/dL
blood glucose during an IPGTT (DIO mice [9]; 24 hours after treatment, 10 min): 264 ± 18 mg/dL
blood glucose during an IPGTT (DIO mice [9]; 24 hours after treatment, 30 min): 267 ± 22 mg/dL
blood glucose during an IPGTT (DIO mice [9]; 24 hours after treatment, 60 min): 228 ± 12 mg/dL
blood glucose during an IPGTT (DIO mice [9]; 24 hours after treatment, 90 min): 193 ± 9 mg/dL
Plasma Insulin (DIO mice [9]; 10 minutes post-glucose (IPGTT)): 1.7 ± 0.2 ng/mL
Plasma Insulin (DIO mice [9]; Pre-glucose (24 hours after treatment)): 1.6 ± 0.2 ng/mL
